This is an account of results in patent US8119630B2 (Arrow Therapeutics Limited, priority 2002, dated 2012).

Structures are written as SMILES.

In the first test the test system is RSV. Put plainly: XTT assay, RSV-infected Vero cells. Type of test: cell-based, Respiratory Syncytial Virus (RSV). To be noted: Table 1; Vero cells infected with RSV, m.o.i.≈0.2, 6 days at 33° C.; read-out: XTT IC50. The method, then: Examples 1 to 74 and 83 to 124 were tested using the following protocol.
The inner 60 wells of 96 well tissue culture plates were seeded with Vero cells at 3×10^4 cells/well (1×10^4 cells/well for toxicity studies) in 100 or 150 μl of medium and incubated at 37° C. overnight or until nearing confluency. For primary screen, 25 μl compounds were added directly to 100 μl medium in single wells to duplicate plates. A third plate was prepared for simultaneous toxicity investigation.
For follow-up investigation, 70 μl of compound in duplicate wells were added directly to culture medium at 3.2× final concentration and ½ log serially diluted down columns of plate. A duplicate plate was prepared for simultaneous toxicity investigation.
Cells were infected with 25 μl RSV to give m.o.i.≈0.2. Some 100 μl of sterile distilled water were added to the outer wells of the plate and incubated at 33° C. for 6 days. Some 0.25 μl/ml PMS were added to stock XTT solution, final conc. […]. Then 25 μl warmed XTT/PMS solution were added to each well and incubated for 5 hours at 37° C. Plates were shaken (DynaTech Vari-Shaker) vigorously for 10 mins and allowed to cool for 15 mins before sealing. Absorbance at 450 nm was measured and data analysed using Microsoft Excel software.
Maximum OD450nm reading (uninfected, untreated control cells) corresponded to 100% inhibition. Minimum OD450nm readings (infected control cells) corresponded to 0% inhibition. Log 10 concentration was plotted against OD450nm and IC50 (Table 1) values were calculated from either reading 50% value from graph or using regression analysis.
On to `CCCCS(=O)(=O)NC1N=C(c2ccccc2)c2ccccc2NC1=O` (stereo not drawn) [Example 37, Butane-1-sulfonic acid-(2-oxo-5-phenyl-2,3-dihydro-H-benzo[e][1,4]diazepin-3-yl)-amide], for which the IC50 was found to be 15 µM. The same measure, in the same setting: to `CCCS(=O)(=O)NC1N=C(c2ccccc2)c2ccccc2NC1=O` (stereo not drawn) [Example 36] belongs 15 µM. On the same count and under the same terms, the same measure for `O=C1Nc2ccccc2C(c2ccccc2)=NC1NC(=O)N1CCCCC1` (stereo not drawn) [Example 16]: 2 µM; for `COc1ccccc1NC(=O)NC1N=C(c2ccccc2)c2ccccc2NC1=O` (stereo not drawn) [Example 68, (2-Methoxy-phenyl)-3-(2-oxo-5-phenyl-2,3-dihydro-1H-benzo[e][1,4]diazepin-3-yl)-urea]: 1 µM.

With `COc1ccccc1C(=O)NC1N=C(c2ccccc2)c2ccccc2NC1=O` (stereo not drawn) [Example 11, 2-Methoxy N-(2-oxo-5-phenyl-2,3-dihydro-1H-benzo[e][1,4]diazepin-3-yl)-benzamide], the IC50 amounted to 0.5 µM.

Still in this test, the particulars now being: human respiratory syncytial virus, Vero, 144 h, read-out: XTT IC50 (uM), Table 1; Vero cells infected with RSV, m.o.i.≈0.2, 6 days at 33° C.
Consider `O=C(NC1N=C(c2ccccc2)c2ccccc2NC1=O)c1ccncc1` (stereo not drawn) [Example 33, N-(2-Oxo-5-phenyl-2,3-dihydro-1H-benzo[e][1,4]diazepin-3-yl)-isonicotinamide], for which the IC50 came to 2.5 µM.

As to `O=C1Nc2ccccc2C(c2ccccc2)=NC1NCc1ccccc1[N+](=O)[O-]` (stereo not drawn) [Example 42, 3-(2-Nitro-benzylamino)-5-phenyl-1,3-dihydro-benzo[e][1,4]diazepin-2-one], the IC50 is 20 µM. On the same count and under the same terms, to `CCN(CC)C(=O)NC1N=C(c2ccccc2)c2ccccc2NC1=O` (stereo not drawn) [Example 2, 1,1-Diethyl-3-(2-oxo-5-phenyl-2,3-dihydro 1H-benzo[e][1,4]diazepin-3-yl)-urea] belongs 4 µM. Same read-out and setting: to `O=C(Nc1ccccc1F)NC1N=C(c2ccccc2)c2ccccc2NC1=O` (stereo not drawn) [Example 73a, 1-(2-Fluoro-phenyl)-3-(2-oxo-5-phenyl-2,3-dihydro-1H-benzo[e][1,4]diazepin-3-yl)-urea] belongs 1 µM; to `O=C(Cc1ccccc1C(F)(F)F)NC1N=C(c2ccccc2)c2ccccc2NC1=O` (stereo not drawn) [Example 65, N-(2-Oxo-5-phenyl-2,3-dihydro-1H-benzo[e][1,4]diazepin-3-yl)-2-(2-trifluoromethyl-phenyl)-acetamide], 2 µM. Still for that read-out and setting: the same measure for `O=C(NC1N=C(c2ccccc2)c2cc(Cl)ccc2NC1=O)C1CCCCC1` (stereo not drawn) [Example 56, Cyclohexanecarboxylic acid (7-Chloro-2-oxo-5-phenyl-2,3-dihydro-1H-benzo[e][1,4]diazepin-3-yl)-amide]: 5 µM; for `COc1ccc(CC(=O)NC2N=C(c3ccccc3)c3ccccc3NC2=O)cc1` (stereo not drawn) [Example 62, 2-(4-Methoxy-phenyl)-N-(2-oxo-5-phenyl-2,3-dihydro-1H-benzo[e][1,4]diazepin-3-yl)-acetamide]: 1.5 µM; for `CC(=O)NC1N=C(c2ccccc2)c2cc(Cl)ccc2NC1=O` (stereo not drawn) [Example 51, N-(7-Chloro-2-oxo-5-phenyl-2,3-dihydro-1H-benzo[e][1,4]diazepin-3-yl)-acetamide]: 5 µM. For the compound `O=C(NC1N=C(c2ccccc2)c2ccccc2NC1=O)c1ccccc1` (stereo not drawn) [Example 13, N-(2-Oxo-5-phenyl-2,3-dihydro-1H-benzo[e][1,4]diazepin-3-yl)-benzamide], the IC50 was 1.5 µM.

In the case of `CS(=O)(=O)NC1N=C(c2ccccc2)c2ccccc2NC1=O` (stereo not drawn) [Example 35, N-(2-Oxo-5-phenyl-2,3-dihydro-1H-benzo[e][1,4]diazepin-3-yl)methanesulfonamide], the IC50 is 6 µM.

Take `O=C(NC1N=C(c2ccccc2)c2ccccc2NC1=O)c1ccco1` (stereo not drawn) [Example 15, Furan-2-carboxylic acid (2-oxo-5-phenyl-2,3-dihydro-1H-benzo[e][1,4]diazepin-3-yl)-amide]: the IC50 was determined as 1 µM. Still for that read-out and setting: to `O=C(NC1N=C(c2ccccc2)c2ccccc2NC1=O)C1CCCC1` (stereo not drawn) [Example 7, Cyclopentanecarboxylic acid (2-oxo-5-phenyl-2,3-dihydro-1H-benzo[e][1,4]diazepin-3-yl)-amide] belongs 2 µM; to `COc1ccc(C(=O)NC2N=C(c3ccccc3)c3cc(Cl)ccc3NC2=O)cc1` (stereo not drawn) [Example 58, N-(7-Chloro-2-oxo-5-phenyl-2,3-dihydro-1H-benzo[e][1,4]diazepin-3-yl)-4-methoxy-benzamide], 1.2 µM. On the same count and under the same terms, the same measure for `CC(C)C(=O)NC1N=C(c2ccccc2)c2ccccc2NC1=O` (stereo not drawn) [Example 5, N-(2-Oxo-5-phenyl-2,3-dihydro-1H-benzo[e][1,4]diazepin-3-yl)-isobutyramide]: 2.5 µM. Still for that read-out and setting: the same measure for `CCC(=O)NC1N=C(c2ccccc2)c2ccccc2NC1=O` (stereo not drawn) [Example 3, N-(2-Oxo-5-phenyl-2,3-dihydro-1H-benzo[e][1,4]diazepin-3-yl)-propionamide]: 2.5 µM; for `O=C1Nc2ccccc2C(c2ccccc2)=NC1NS(=O)(=O)c1cccc(Br)c1` (stereo not drawn) [Example 39, 3-Bromo-N-(2-oxo-5-phenyl-2,3-dihydro-1H-benzo[e][1,4]diazepin-3-yl)-benzenesulfonamide]: 10 µM; for `CC(C)(C)C(=O)NC1N=C(c2ccccc2)c2ccccc2NC1=O` (stereo not drawn) [Example 6, 2,2-Dimethyl-N-(2-Oxo-5-phenyl-2,3-dihydro-1H-benzo[e][1,4]diazepin-3-yl)-propionamide]: 6 µM. Consider `O=C(Nc1ccccc1F)N[C@H]1N=C(c2ccccc2)c2ccccc2NC1=O` [Example 73b, (S)-1-(2-Fluoro-phenyl)-3-(2-oxo-5-phenyl-2,3-dihydro-1H-benzo[e][1,4]diazepin-3-yl)-urea], for which the IC50 came out at 0.7 µM. Same read-out and setting: the same measure for `O=C(Nc1ccc(F)cc1)NC1N=C(c2ccccc2)c2ccccc2NC1=O` (stereo not drawn) [Example 74, 1-(4-Fluoro-phenyl)-3-(2-oxo-5-phenyl-2,3-dihydro-1H-benzo[e][1,4]diazepin-3-yl)-urea]: 1.5 µM; for `CC(C)C(=O)NC1N=C(c2ccccc2)c2cc(Cl)ccc2NC1=O` (stereo not drawn) [Example 52, N-(7-Chloro-2-oxo-5-phenyl-2,3-dihydro-1H-benzo[e][1,4]diazepin-3-yl)-isobutyramide]: 3 µM. Same read-out and setting: to `O=C1Nc2ccccc2C(c2ccccc2)=NC1NS(=O)(=O)c1ccccc1F` (stereo not drawn) [Example 41, 2-Fluoro-N-(2-oxo-5-phenyl-2,3-dihydro-1H-benzo[e][1,4]diazepin-3-yl)-benzenesulfonamide] belongs 10 µM; to `O=C(Cc1cccc(C(F)(F)F)c1)NC1N=C(c2ccccc2)c2ccccc2NC1=O` (stereo not drawn) [Example 66, N-(2-Oxo-5-phenyl-2,3-dihydro-1H-benzo[e][1,4]diazepin-3-yl)-2-(3-trifluoromethyl-phenyl)-acetamide], 1.5 µM; to `O=C(NC1N=C(c2ccccc2)c2cc(Cl)ccc2NC1=O)c1cccs1` (stereo not drawn) [Example 55, Thiophene-2-carboxylic acid (7-chloro-2-oxo-5-phenyl-2,3-dihydro-1H-benzo[e][1,4]diazepin-3-yl)-amide], 3 µM. On the same count and under the same terms, the same measure for `O=C(NC1N=C(c2ccccc2)c2ccccc2NC1=O)c1ccccc1[N+](=O)[O-]` (stereo not drawn) [Example 26, 2-Nitro-N-(2-oxo-5-phenyl-2,3-dihydro-1H-benzo[e][1,4]diazepin-3-yl)-benzamide]: 2 µM; for `O=C(NC1N=C(c2ccccc2)c2cc(Cl)ccc2NC1=O)c1ccccc1[N+](=O)[O-]` (stereo not drawn) [Example 59, N-(7-Chloro-2-oxo-5-phenyl-2,3-dihydro-1H-benzo[e][1,4]diazepin-3-yl)-2-nitro-benzamide]: 5 µM; for `O=C(Nc1ccccc1[N+](=O)[O-])NC1N=C(c2ccccc2)c2ccccc2NC1=O` (stereo not drawn) [Example 69, 1-(2-Nitro-phenyl)-3-(2-oxo-5-phenyl-2,3-dihydro-1H-benzo[e][1,4]diazepin-3-yl)-urea]: 1.5 µM. For `Cc1ccc(NC(=O)NC2N=C(c3ccccc3)c3ccccc3NC2=O)cc1` (stereo not drawn) [Example 72, 1-(2-oxo-5-phenyl-2,3-dihydro-1H-benzo[e][1,4]diazepin-3-yl)-3-p-tolyl-urea], the IC50 worked out at 1.5 µM.

`COc1ccccc1CNC1N=C(c2ccccc2)c2ccccc2NC1=O` (stereo not drawn) [Example 45, 3-(2-Methoxy-benzylamino)-5-phenyl-1,3-dihydro-benzo[e][1,4]diazepin-2-one]: the IC50 worked out at 20 µM. Regarding `O=C(NC1N=C(c2ccccc2)c2ccccc2NC1=O)c1ccc2c(c1)CCO2` (stereo not drawn) [Example 29, 2,3-Dihydro-benzofuran-5-carboxylic acid (2-oxo-5-phenyl-2,3-dihydro-1H-benzo[e][1,4]diazepin-3-yl)-amide], the IC50 stood at 2 µM. Same read-out and setting: the same measure for `O=C1Nc2ccccc2C(c2ccccc2)=NC1NCc1ccco1` (stereo not drawn) [Example 50, 3-[(Furan-2-ylmethyl)-amino]-5-phenyl-1,3-dihydro-benzo[e][1,4]diazepin-2-one]: 50 µM. With `O=C(NC1N=C(c2ccccc2)c2ccccc2NC1=O)c1ccc([N+](=O)[O-])cc1` (stereo not drawn) [Example 18, 4-Nitro-N-(2-oxo-5-phenyl-2,3-dihydro-1H-benzo[e][1,4]diazepin-3-yl)-benzamide], the IC50 came to 2 µM.
